Data from US12336981B2, “Compounds and compositions for the inhibition of NAMPT” (Valo Health, Inc., priority 2010, dated 2025).
Like-named read-outs stand apart in the source and are kept apart here.

What was measured:
[1] = molecular target: T1, NAMPT (Homo sapiens, UniProt P43490); assay: Biochemical inhibition assay: NAMPT enzymatic reaction, NMN quantified by mass spectrometry; conditions: read-out: Biochem IC50
T1 construct: His tag; host or cells: E. coli
Method in brief: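 Inhibition of E. coli-expressed His-tagged human NAMPT, measured as NMN formation by mass spectrometry after a 30 min room-temperature reaction containing 1 μM NAM, 100 μM PRPP and 2.5 mM ATP.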

[2] = test system: A2780 cells; assay: In-vitro cell proliferation assay (SRB), A2780 cells; assay type: cell-based; conditions: Homo sapiens, A2780, 72 h, A2780 cells, 72 hours, read-out: A2780 IC50
Method in brief: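 Cells were plated overnight at 37° C., 5% CO2, then exposed to serially diluted compounds (0.1% DMSO final) for 72 hours. Viable cells were measured by sulforhodamine B staining after TCA fixation, read at 570 nm; media-only background was subtracted before % inhibition was calculated.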

T1 sequence (P43490 whole entry): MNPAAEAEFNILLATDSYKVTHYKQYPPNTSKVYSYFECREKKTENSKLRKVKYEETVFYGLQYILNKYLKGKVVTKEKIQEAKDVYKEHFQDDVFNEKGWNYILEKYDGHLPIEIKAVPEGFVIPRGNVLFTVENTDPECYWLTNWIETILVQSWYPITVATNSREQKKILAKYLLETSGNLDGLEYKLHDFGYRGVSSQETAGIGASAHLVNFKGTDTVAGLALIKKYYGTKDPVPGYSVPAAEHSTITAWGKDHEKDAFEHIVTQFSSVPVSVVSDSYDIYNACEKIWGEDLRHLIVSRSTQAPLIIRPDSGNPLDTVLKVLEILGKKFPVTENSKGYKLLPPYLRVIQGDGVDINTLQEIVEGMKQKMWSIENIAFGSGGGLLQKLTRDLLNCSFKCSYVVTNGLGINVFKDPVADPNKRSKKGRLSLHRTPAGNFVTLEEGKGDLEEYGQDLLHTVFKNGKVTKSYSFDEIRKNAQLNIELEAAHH

With `Cc1cncc(S(=O)(=O)c2ccc(CNC(=O)c3cnc4nccn4c3)cc2)n1` [N-{[4-(6-methylpyrazine-2-sulfonyl)phenyl]methyl}imidazo[1,2-a]pyrimidine-6-carboxamide] the IC50 ([1]; NAMPT enzymatic assay) was 0.001 µM and the IC50 ([2]; SRB) was 0.0525 µM.

In the case of `O=C(NCc1ccc(S(=O)(=O)c2cc(C(F)(F)F)ccc2OCc2ccccc2)cc1)c1cnc2nccn2c1`, the IC50 ([1]; NAMPT enzymatic assay) is reported as 0.0332 µM and the IC50 ([2]; SRB) is reported as 0.1 to 1 µM.

Work on `COc1cc(Cl)cc(S(=O)(=O)c2ccc(CNC(=O)c3cnc4nccn4c3)cc2)c1` yielded an IC50 ([1]; NAMPT enzymatic reaction) of 0.0013 µM and an IC50 ([2]; SRB) of 0.0008 µM.

Compound `CCOc1cccc(S(=O)(=O)c2ccc(CNC(=O)c3cnc4nccn4c3)cc2)c1F` has an IC50 ([1]; NAMPT enzymatic reaction) of 0.004 µM and an IC50 ([2]; SRB) of 0.0197 µM.

In the case of `Cc1ccccc1S(=O)(=O)c1ccc(CNC(=O)c2cc3ccncc3s2)cc1` [N-({4-[(2-methylbenzene)sulfonyl]phenyl}methyl)thieno[2,3-c]pyridine-2-carboxamide], the IC50 ([1]; NAMPT enzymatic reaction) is reported as 0.01 µM and the IC50 ([2]; SRB assay) is reported as 0.0222 µM.

`O=C(NCc1ccc(S(=O)(=O)c2cccc(C(F)(F)F)c2Cl)cc1)c1cnc2[nH]ncc2c1` [N-[(4-{[2-chloro-3-(trifluoromethyl)benzene]sulfonyl}phenyl)methyl]-1H-pyrazolo[3,4-b]pyridine-5-carboxamide] gave an IC50 ([1]; NAMPT enzymatic assay) of 0.0365 µM and an IC50 ([2]; SRB) of 0.0384 µM.

`O=C(NCc1ccc(S(=O)(=O)c2cc(O)ccc2OC(F)(F)F)cc1)c1cnc2[nH]ncc2c1` showed an IC50 ([1]; NAMPT enzymatic assay) of 0.0219 µM and an IC50 ([2]; SRB) of 0.0679 µM.

`O=C(NCc1ccc(S(=O)(=O)c2cnn(-c3ccc(F)cc3)c2)cc1)c1cc2ccncc2s1` [N-({4-[1-(4-fluorophenyl)-1H-pyrazole-4-sulfonyl]phenyl}methyl)thieno[2,3-c]pyridine-2-carboxamide] gave an IC50 ([1]; NAMPT enzymatic assay) of 0.0045 µM and an IC50 ([2]; SRB) of 0.0062 µM.

`COc1ccc(C)cc1S(=O)(=O)c1ccc(CNC(=O)c2cnc3[nH]ncc3c2)cc1` [N-({4-[(2-methoxy-5-methylbenzene)sulfonyl]phenyl}methyl)-1H-pyrazolo[3,4-b]pyridine-5-carboxamide] showed an IC50 ([1]; NAMPT enzymatic reaction) of 0.0563 µM and an IC50 ([2]; SRB) of 0.0244 µM.

`CC(C)c1cccc(S(=O)(=O)c2ccc(CNC(=O)c3cc4ccncc4s3)cc2)c1` [N-[(4-{[3-(propan-2-yl)benzene]sulfonyl}phenyl)methyl]thieno[2,3-c]pyridine-2-carboxamide] was tested, and the IC50 ([1]; NAMPT enzymatic reaction) was 0.009 µM and the IC50 ([2]; SRB assay) was 0.0026 µM.

For `Cc1ccc(S(=O)(=O)c2ccc(CNC(=O)c3ccc4nccn4c3)cc2)cc1` [N-({4-[(4-methylbenzene)sulfonyl]phenyl}methyl)imidazo[1,2-a]pyridine-6-carboxamide], the IC50 ([1]; NAMPT enzymatic reaction) was 0.0176 µM and the IC50 ([2]; SRB) was 0.012 µM.

`Cc1cc(F)ccc1S(=O)(=O)c1ccc(CNC(=O)c2cnc3[nH]ncc3c2)cc1` [N-({4-[(4-fluoro-2-methylbenzene)sulfonyl]phenyl}methyl)-1H-pyrazolo[3,4-b]pyridine-5-carboxamide] was tested, and the IC50 ([1]; NAMPT enzymatic reaction) was 0.0788 µM and the IC50 ([2]; SRB) was 0.0983 µM.

With `CCN(C)c1ncc(S(=O)(=O)c2ccc(CNC(=O)c3ccc4nccn4c3)cc2)s1` [N-[(4-{2-[ethyl(methyl)amino]-1,3-thiazole-5-sulfonyl}phenyl)methyl]imidazo[1,2-a]pyridine-6-carboxamide] the IC50 ([1]; NAMPT enzymatic assay) was 0.0033 µM and the IC50 ([2]; SRB) was 0.0004 µM.

For `O=C(NCc1ccc(S(=O)(=O)c2ccc(F)c(OCC(F)(F)F)c2)cc1)c1cc2ccncc2s1`, the IC50 ([1]; NAMPT enzymatic assay) was 0.0033 µM and the IC50 ([2]; SRB) was 0.0118 µM.

For `O=C(NCc1ccc(S(=O)(=O)c2cnn(-c3ccc(F)cc3)c2)cc1)c1cc2cnccc2[nH]1` [N-({4-[1-(4-fluorophenyl)-1H-pyrazole-4-sulfonyl]phenyl}methyl)-1H-pyrrolo[3,2-c]pyridine-2-carboxamide], the IC50 ([1]; NAMPT enzymatic assay) was 0.0184 µM and the IC50 ([2]; SRB) was 0.0066 µM.

For `O=C(NCc1ccc(S(=O)(=O)c2cccc(F)c2)cc1)c1cnc2nccn2c1`, the IC50 ([1]; NAMPT enzymatic reaction) was 0.0019 µM and the IC50 ([2]; SRB) was 0.0221 µM.

In the case of `O=C(NCc1ccc(S(=O)(=O)c2ccccc2Oc2ccccc2)cc1)c1ccc2nccn2c1` [N-({4-[(2-phenoxybenzene)sulfonyl]phenyl}methyl)imidazo[1,2-a]pyridine-6-carboxamide], the IC50 ([1]; NAMPT enzymatic reaction) is reported as 0.0636 µM and the IC50 ([2]; SRB) is reported as 0.0607 µM.

With `O=C(NCc1ccc(S(=O)(=O)c2ccc(C(F)(F)F)cc2C(F)(F)F)cc1)c1cc2ccncc2o1` the IC50 ([1]; NAMPT enzymatic assay) was 0.053 µM and the IC50 ([2]; SRB) was 0.0637 µM.

`CS(=O)(=O)c1ccc(S(=O)(=O)c2ccc(CNC(=O)c3cc4cnccc4[nH]3)cc2)cc1` [N-({4-[(4-methanesulfonylbenzene)sulfonyl]phenyl}methyl)-1H-pyrrolo[3,2-c]pyridine-2-carboxamide] gave an IC50 ([1]; NAMPT enzymatic reaction) of 0.024 µM and an IC50 ([2]; SRB assay) of 0.012 µM.

`COc1cc(S(=O)(=O)c2ccc(CNC(=O)c3cc4ccncc4s3)cc2)ccc1Cl` was tested, and the IC50 ([1]; NAMPT enzymatic reaction) was 0.0026 µM and the IC50 ([2]; SRB) was 0.0023 µM.

Compound `COc1cc(C(F)(F)F)ccc1S(=O)(=O)c1ccc(CNC(=O)c2cnc3nccn3c2)cc1` has an IC50 ([1]; NAMPT enzymatic assay) of 0.0044 µM and an IC50 ([2]; SRB) of 0.0224 µM.

`Cn1ncc2cc(S(=O)(=O)c3ccc(CNC(=O)c4cc5cnccc5[nH]4)cc3)ccc21` [N-{[4-(1-methyl-1H-indazole-5-sulfonyl)phenyl]methyl}-1H-pyrrolo[3,2-c]pyridine-2-carboxamide] gave an IC50 ([1]; NAMPT enzymatic assay) of 0.0057 µM and an IC50 ([2]; SRB) of 0.0031 µM.

`O=C(NCc1ccc(S(=O)(=O)c2cc(Cl)cc(C(F)(F)F)c2)cc1)c1cnc2[nH]ncc2c1` [N-[(4-{[3-chloro-5-(trifluoromethyl)benzene]sulfonyl}phenyl)methyl]-1H-pyrazolo[3,4-b]pyridine-5-carboxamide] showed an IC50 ([1]; NAMPT enzymatic assay) of 0.0078 µM and an IC50 ([2]; SRB) of 0.00273 µM.

With `CCCCc1ccc(S(=O)(=O)c2ccc(CNC(=O)c3cnc4[nH]ncc4c3)cc2)cc1` [N-({4-[(4-butylbenzene)sulfonyl]phenyl}methyl)-1H-pyrazolo[3,4-b]pyridine-5-carboxamide] the IC50 ([1]; NAMPT enzymatic reaction) was 0.0712 µM and the IC50 ([2]; SRB) was 0.0684 µM.

In the case of `C#CCOc1ccc(Cl)cc1S(=O)(=O)c1ccc(CNC(=O)c2ccc3nccn3c2)cc1`, the IC50 ([1]; NAMPT enzymatic assay) is reported as 0.007 µM and the IC50 ([2]; SRB) is reported as 0.0014 µM.

`CN(C)Cc1ccc(S(=O)(=O)c2ccc(CNC(=O)c3cnc4nccn4c3)cc2)cc1` gave an IC50 ([1]; NAMPT enzymatic assay) of 0.0033 µM and an IC50 ([2]; SRB) of 0.0246 µM.

Compound `O=C(NCc1ccc(S(=O)(=O)c2ccccc2CN2CCOCC2)cc1)c1ccc2nccn2c1` [N-[(4-{[2-(morpholin-4-ylmethyl)benzene]sulfonyl}phenyl)methyl]imidazo[1,2-a]pyridine-6-carboxamide] has an IC50 ([1]; NAMPT enzymatic assay) of 0.136 µM and an IC50 ([2]; SRB) of 0.0342 µM.

In the case of `O=C(NCc1ccc(S(=O)(=O)c2cccc(-c3ccccc3)c2)cc1)c1cc2ccncc2s1`, the IC50 ([1]; NAMPT enzymatic reaction) is reported as 0.0045 µM and the IC50 ([2]; SRB) is reported as 0.01 µM.

Work on `COc1ccc(OC)c(S(=O)(=O)c2ccc(CNC(=O)c3cnc4[nH]ncc4c3)cc2)c1` [N-({4-[(2,5-dimethoxybenzene)sulfonyl]phenyl}methyl)-1H-pyrazolo[3,4-b]pyridine-5-carboxamide] yielded an IC50 ([1]; NAMPT enzymatic reaction) of 0.0398 µM and an IC50 ([2]; SRB) of 0.0248 µM.

`CCCCOc1cc(F)ccc1S(=O)(=O)c1ccc(CNC(=O)c2cc3cnccc3[nH]2)cc1` gave an IC50 ([1]; NAMPT enzymatic reaction) of 0.0311 µM and an IC50 ([2]; SRB) of 0.0055 µM.

Work on `O=C(NCc1ccc(S(=O)(=O)c2ccc(C(F)(F)F)cc2Cl)cc1)c1cnc2nccn2c1` yielded an IC50 ([1]; NAMPT enzymatic assay) of 0.0184 µM and an IC50 ([2]; SRB) of 0.0644 µM.

For `Cn1ncc2cc(S(=O)(=O)c3ccc(CNC(=O)c4cc5ccncc5o4)cc3)ccc21` [N-{[4-(1-methyl-1H-indazole-5-sulfonyl)phenyl]methyl}furo[2,3-c]pyridine-2-carboxamide], the IC50 ([1]; NAMPT enzymatic assay) was 0.0033 µM and the IC50 ([2]; SRB) was 0.0035 µM.

For `CN(C)c1ccc(S(=O)(=O)c2ccc(CNC(=O)c3cc4ccncc4o3)cc2)cn1` [N-({4-[6-(dimethylamino)pyridine-3-sulfonyl]phenyl}methyl)furo[2,3-c]pyridine-2-carboxamide], the IC50 ([1]; NAMPT enzymatic assay) was 0.003 µM and the IC50 ([2]; SRB) was 0.0018 µM.
